Experimental data from patent US6600057B2, “Matrix metalloproteinase inhibitors” (Kimberly-Clark Worldwide, Inc., priority 2000, dated 2003).

Biological target: MMP-9 (Homo sapiens, UniProt P14780)
Assay: Fluorometric assay of MMP-9 inhibition (cleavage of a fluorogenic peptide substrate)
Type: biochemical
Conditions: incubated 30 minutes at room temperature
Experimental: The second assay utilized the technique of fluorescence resonance energy transfer (FRET). The substrate peptide (Calbiochem) comprised seven amino acids coupled to a carboxyl terminal dinitrophenyl acceptor, and an amino terminal 2-aminobenzo-anthraniloyl (Abz) moiety donor. Cleavage of this substrate by MMP-9 results in the liberation of a fluorescent product (365 nm excitation, 450 nm emission). […] MMP at a concentration of 0.5 μM was mixed with varying amounts of compound and incubated at 25° C. for 10 minutes in order to effect binding. The protein mixture was added to the peptide substrate, and was quickly mixed. Fluorescence intensity as a function of time was measured with a Dynex MFX fluorescence microtiter plate reader. Fluorescence intensity was related back to moles of peptide cleaved by producing a standard curve with an Abz containing non-FRET peptide. Inhibitory constants were derived from the curves as above. (Segel, IH. (1993) Enzyme Kinetics: Behavior and analysis of rapid equilibrium and steady-state enzyme systems. Wiley Classics Library, John Wiley and Sons, Inc. New York.)
The inhibition of MMP-9 by AQCA was measured by fluorometric assay. The fluorometric assay measures the cleavage of a fluorogenic peptide substrate (excitation wavelength 355 nm, emission wavelength 455 nm). MMP-9 is incubated with 0 mM AQCA (open circles), 1 mM AQCA (closed circles); or 2 mM AQCA (closed squares) for 30 minutes at room temperature. Fluorescence is measured at the times (in minutes) indicated.
Inhibition of MMP-9. Fluorometric assay which measures the cleavage of a fluorogenic peptide substrate (excitation wavelength 355 nm, emission wavelength 455 nm). […] Fluorescence is measured at the times (in minutes) indicated.
The inhibition of MMP-9 by anthraquinyl-mercaptoethylamine was measured by fluorometric assay. […] Fluorescence is measured at the times (in minutes) indicated.
The inhibition of MMP-9 by anthraquinyl alanine hyroxamate was measured by fluorometric assay. […] Fluorescence is measured at the times (in minutes) indicated.

[1] = 0.25 mM compound, FIG. 3 and FIG. 4

Sequence of MMP-9 (P14780 94-707, species assumed): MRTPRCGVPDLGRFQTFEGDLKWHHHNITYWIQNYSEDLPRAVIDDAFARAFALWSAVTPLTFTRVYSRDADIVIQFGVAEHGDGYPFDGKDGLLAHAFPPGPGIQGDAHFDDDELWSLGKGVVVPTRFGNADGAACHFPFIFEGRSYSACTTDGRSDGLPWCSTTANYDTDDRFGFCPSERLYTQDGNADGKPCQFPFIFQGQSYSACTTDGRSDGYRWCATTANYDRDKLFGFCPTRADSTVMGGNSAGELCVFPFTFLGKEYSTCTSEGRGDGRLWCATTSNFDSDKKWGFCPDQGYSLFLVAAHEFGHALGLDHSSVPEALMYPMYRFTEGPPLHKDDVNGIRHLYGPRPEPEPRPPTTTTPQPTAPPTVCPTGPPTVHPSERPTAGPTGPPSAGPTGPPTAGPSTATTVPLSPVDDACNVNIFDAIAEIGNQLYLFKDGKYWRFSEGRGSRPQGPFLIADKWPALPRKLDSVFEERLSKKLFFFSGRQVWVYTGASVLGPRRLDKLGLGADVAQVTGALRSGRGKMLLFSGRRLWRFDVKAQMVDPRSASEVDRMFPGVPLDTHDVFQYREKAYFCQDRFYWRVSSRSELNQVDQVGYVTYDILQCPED

Row | SMILES | inhibition of the enzymatic activity of MMP-9 (1 mM or 2 mM AQCA, FIG. 2) | inhibition of the enzymatic activity of MMP-9 [1]
1 | O=C(O)c1cc(O)c2c(c1)C(=O)c1cccc(O)c1C2=O [AQCA, 4,5-dihydroxyanthaquinone-2-carboxylic acid] | inhibited the enzymatic activity of MMP-9 in a dose dependent manner | 
2 | CC(NC(=O)c1cc(O)c2c(c1)C(=O)c1cccc(O)c1C2=O)C(=O)NO (stereo not drawn) [anthraquinyl alanine hyroxamate, anthraquinyl-alanine hydroxamate] |  | inhibited the enzymatic activity of MMP-9
3 | O=C(NCCS)c1cc(O)c2c(c1)C(=O)c1cccc(O)c1C2=O [anthraquinyl mercaptoethylamine, anthraquinyl-mercaptoethyamine] |  | inhibited the enzymatic activity of MMP-9
